Data: publication PMC5515969, “Effects of 31 FDA approved small-molecule kinase inhibitors on isolated rat liver mitochondria” (Archives of Toxicology, 2016)
Where a name gives a salt, the structure may show the parent alone. Read-outs that look alike come from different tables or passages of the source.

What was measured:
[1] = system: isolated rat liver mitochondria; test: Mitochondrial inner membrane potential (MMP), Rhodamine 123; assay type: biochemical; settings: difference in signal between KI and DMSO treated samples at the end of experiments
Source text: Fig. 3 KI effects on mitochondrial inner membrane potential (MMP). […] In a, c, data are means and standard derivations from three separate experiments. *p < 0.05 as compared to DMSO-treated samples at the end of experiments. In b, data are means of two independent experiments

[2] = cited from earlier work
RCC I = RCC I activity in submitochondrial particles; assay type: biochemical, rat; parameters: key to RCC I at 10XCmax / RCC I at 100XCmax / RCC I at 50XCmax / RCC I at 30XCmax / RCC I at 20XCmax: activity relative to DMSO-treated controls (control set as 1 = 100%); settings: 10XCmax
Outline: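 Activity relative to DMSO (set as 1) after 15-min exposure of submitochondrial particles (1 mg/ml) to compound. RCC I is defined as rotenone-sensitive activity and RCC II is followed at 600 nm over 6 min.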

[3] = system: isolated rat liver mitochondria; test: Mitochondrial ROS production (CM-H2DCFDA); settings: DMSO treated samples set as 1
[4] = parameters: method as in product labeling; settings: ref product labeling, cited from earlier work
[5] = Solubility of drug in DMSO stock / reaction buffer at multiples of Cmax; assay type: physicochemical
Source text: (§1) Supplement 204_2016_1918_MOESM3_ESM.xlsx, sheet "Sheet1" | column: 100 Cmax; 50 Cmax; note

[6] = system: isolated rat liver mitochondria; test: Mitochondrial oxygen consumption (glutamate/malate or succinate driven, state 4 and state 3); assay type: biochemical; settings: DMSO treated samples set as 1; as to State 3 respiration driven by succinate at 10XCmax: key: 0 indicates that the drug had no effects (negative); as to State 3 respiration driven by succinate at 1XCmax: key: 0 indicates that the drug had no effects (negative)
Outline: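 Rat liver mitochondria (1 mg/ml protein) exposed 5 min to kinase inhibitors in 0.1% DMSO, then O2 consumption measured by Clark-type electrode with glutamate/malate or succinate (state 4), ADP added after 3 min (state 3). Rates normalized to 0.1% DMSO controls set to 1.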

[7] = cited from earlier work; remark: listed apart in the source
RCC II = target: T1, RCC II (Rattus norvegicus, UniProt P21913+Q641Z9+Q6PCT8+Q920L2); test: RCC II activity in submitochondrial particles; assay type: biochemical; parameters: key: activity relative to DMSO-treated controls (control set as 1 = 100%)
T1 construct: Submitochondrial particles were prepared by subjecting the intact mitochondria to three successive freeze–thaw cycles; from tissue; host or cells: rat liver mitochondria, used as submitochondrial particles
Outline: (§2)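 First, submitochondrial particles (1 mg/ml) are incubated with inhibitor for 15 min. Next, complex activities are followed spectrophotometrically, with RCC I taken as the difference between buffers lacking and containing rotenone. Finally, activities are expressed relative to DMSO controls set at 1.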

RCC V = RCC V activity in submitochondrial particles; assay type: biochemical, rat; as to RCC V at 5XCmax: key: 0 indicates that the drug had no effects (negative)
Outline: as §2

[8] = system: isolated rat liver mitochondria; settings: positive control alamethicin treated samples
[9] = system: isolated rat liver mitochondria; test: Mitochondrial swelling (absorbance at 535 nm); assay type: biochemical; settings: difference in signal between KI and DMSO treated samples at the end of experiments; as to Swelling 5XCmax: key: 0 indicates that the drug had no effects (negative)
RCC III = RCC III activity in submitochondrial particles; assay type: biochemical, rat; parameters: key to RCC III at 100XCmax: activity relative to DMSO-treated controls (control set as 1 = 100%); settings: 100XCmax
Outline: as §2

[10] = Solubility of DMSO stock for 100X/50X Cmax testing; assay type: physicochemical
Source text: as §1

[11] = in vivo; cited from earlier work
RCC IV = RCC IV activity in submitochondrial particles; assay type: biochemical, rat; parameters: key to RCC IV at 50XCmax / RCC IV at 100XCmax: activity relative to DMSO-treated controls (control set as 1 = 100%); settings: 50XCmax; DMSO treated samples set as 1; in %
Outline: as §2

[12] = relative to DMSO treated samples
[13] = 50XCmax, DMSO treated samples set as 1

T1 sequence (Q920L2 35-656): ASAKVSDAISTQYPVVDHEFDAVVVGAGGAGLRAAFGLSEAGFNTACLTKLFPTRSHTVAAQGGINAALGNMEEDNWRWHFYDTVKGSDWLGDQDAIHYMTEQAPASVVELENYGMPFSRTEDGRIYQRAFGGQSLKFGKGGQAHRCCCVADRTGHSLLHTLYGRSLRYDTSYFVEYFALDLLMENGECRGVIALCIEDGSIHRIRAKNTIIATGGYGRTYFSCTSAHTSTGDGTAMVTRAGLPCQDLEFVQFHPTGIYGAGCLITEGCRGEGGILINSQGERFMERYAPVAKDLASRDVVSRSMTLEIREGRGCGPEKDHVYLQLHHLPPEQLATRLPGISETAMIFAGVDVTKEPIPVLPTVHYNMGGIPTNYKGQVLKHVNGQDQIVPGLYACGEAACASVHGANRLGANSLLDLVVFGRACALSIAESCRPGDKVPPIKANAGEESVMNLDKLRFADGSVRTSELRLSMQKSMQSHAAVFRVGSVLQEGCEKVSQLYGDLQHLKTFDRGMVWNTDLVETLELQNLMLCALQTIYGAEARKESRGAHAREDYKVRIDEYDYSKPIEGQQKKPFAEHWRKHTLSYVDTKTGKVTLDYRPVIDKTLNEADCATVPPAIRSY
T1 sequence (P21913 31-282): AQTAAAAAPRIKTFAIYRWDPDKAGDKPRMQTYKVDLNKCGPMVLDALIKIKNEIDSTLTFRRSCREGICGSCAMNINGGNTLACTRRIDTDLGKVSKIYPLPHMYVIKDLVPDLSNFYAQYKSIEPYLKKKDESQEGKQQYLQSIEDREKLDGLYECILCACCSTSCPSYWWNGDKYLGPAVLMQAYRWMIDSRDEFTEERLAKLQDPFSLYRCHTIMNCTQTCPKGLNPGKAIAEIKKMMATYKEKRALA
T1 sequence (Q641Z9 1-169): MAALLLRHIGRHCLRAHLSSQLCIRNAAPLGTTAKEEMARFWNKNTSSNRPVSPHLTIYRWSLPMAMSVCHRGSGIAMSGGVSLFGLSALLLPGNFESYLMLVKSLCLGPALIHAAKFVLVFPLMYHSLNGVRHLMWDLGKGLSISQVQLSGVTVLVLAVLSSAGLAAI
T1 sequence (Q6PCT8 57-159): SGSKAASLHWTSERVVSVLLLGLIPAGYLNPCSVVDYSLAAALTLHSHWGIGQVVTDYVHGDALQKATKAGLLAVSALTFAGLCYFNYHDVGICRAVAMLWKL

C#Cc1cccc(Nc2ncnc3cc(OCCOC)c(OCCOC)cc23)c1 [erlotinib hydrochloride]
MMP measured by Rhodamine 123 at 1XCmax [1]: 0
MMP measured by Rhodamine 123 at 2.5XCmax [1]: 0
MMP measured by Rhodamine 123 at 5XCmax [1]: 0
MMP measured by Rhodamine 123 at 10XCmax [1]: 0
Cmax ([2]; read-out: Cmax at µM, therapeutic maximal blood concentration, ref product labeling): 3.44 µM
Cmax ([2]; therapeutic maximal blood concentration, ref product labeling): 1480 ng/mL
RCC I at 10XCmax (RCC I; [12]): 0
ROS measured by CM-H2DCFDA at 1XCmax [3]: 0
ROS measured by CM-H2DCFDA at 2.5XCmax [3]: 0
ROS measured by CM-H2DCFDA at 5XCmax [3]: 0
ROS measured by CM-H2DCFDA at 10XCmax [3]: 0
Labeling for cardiotoxicity ([4]; BBW: black box warning, W&P: Warnings and Precautions): W&P: Myocardial Infarction/Ischemia
Potential for cardiotoxicity (based on labeling) [4]: 1
Solubility of stock for 50 Cmax ([5]; DMSO stock for 50 Cmax): not soluble
Solubility of stock for 100 Cmax ([5]; DMSO stock for 100 Cmax): not soluble
State 3 respiration driven by glutamate/malate at 1XCmax ([6]; 1XCmax): 0
State 3 respiration driven by succinate at 1XCmax ([6]; 1XCmax): 0
State 4 respiration driven by glutamate/malate at 1XCmax ([6]; 1XCmax): 0
State 4 respiration driven by succinate at 1XCmax ([6]; 1XCmax): 0
State 3 respiration driven by glutamate/malate at 2.5XCmax ([6]; 2.5XCmax): 0
State 3 respiration driven by succinate at 2.5XCmax ([6]; 2.5XCmax): 0
State 4 respiration driven by glutamate/malate at 2.5XCmax ([6]; 2.5XCmax): 0
State 4 respiration driven by succinate at 2.5XCmax ([6]; 2.5XCmax): 0
State 3 respiration driven by glutamate/malate at 5XCmax ([6]; 5XCmax): 0
State 3 respiration driven by succinate at 5XCmax ([6]; 5XCmax): 0
State 4 respiration driven by glutamate/malate at 5XCmax ([6]; 5XCmax): 0
State 4 respiration driven by succinate at 5XCmax ([6]; 5XCmax): 0
State 3 respiration driven by glutamate/malate at 10XCmax ([6]; 10XCmax): 0
State 3 respiration driven by succinate at 10XCmax ([6]; 10XCmax): 0
State 4 respiration driven by glutamate/malate at 10XCmax ([6]; 10XCmax): 0
State 4 respiration driven by succinate at 10XCmax ([6]; 10XCmax): 0
DILI potential (based on labeling) ([7]; 1 = DILI positive, 0 = negative, ref product labeling): 1
Labeling for DILI ([7]; in vivo): W&P: fatal DILI
RCC II at 1.0XCmax (RCC II; [12]): 0
RCC II at 2.5XCmax (RCC II; [12]): 0
RCC II at 5XCmax (RCC II; [12]): 0
RCC II at 10XCmax (RCC II; [12]): 0
RCC V at 5XCmax (RCC V; [12]): 0
RCC V at 10XCmax (RCC V; 10XCmax, relative to DMSO treated samples): 83.52±2.96
Cytochrome c release 1XCmax [8]: 0
Cytochrome c release 2.5XCmax [8]: 0
Cytochrome c release 5XCmax [8]: 0
Cytochrome c release 10XCmax [8]: 0
Swelling 1XCmax [9]: 0
Swelling 2.5XCmax [9]: 0
Swelling 5XCmax [9]: 0
Swelling 10XCmax [9]: 0

C=CC(=O)Nc1cc(Nc2nccc(-c3cn(C)c4ccccc34)n2)c(OC)cc1N(C)CCN(C)C.CS(=O)(=O)O [osimertinib mesylate]
MMP measured by Rhodamine 123 at 1XCmax [1]: 0
MMP measured by Rhodamine 123 at 2.5XCmax [1]: 0
MMP measured by Rhodamine 123 at 5XCmax [1]: 0
MMP measured by Rhodamine 123 at 10XCmax [1]: 0
MMP measured by Rhodamine 123 at 20XCmax ([1]; 20XCmax): 0
MMP measured by Rhodamine 123 at 30XCmax ([1]; 30XCmax): 0
MMP measured by Rhodamine 123 at 50XCmax ([1]; 50XCmax): 0
MMP measured by Rhodamine 123 at 100XCmax ([1]; 100XCmax): 0
RCC III at 100XCmax (RCC III): 0
Cmax ([2]; human, in vivo): 0.5 µM
note (DMSO stock) [10]: 50 mM will precipitate
RCC I at 10XCmax (RCC I; DMSO treated samples set as 1): 0
ROS measured by CM-H2DCFDA at 1XCmax [3]: 0
ROS measured by CM-H2DCFDA at 2.5XCmax [3]: 0
ROS measured by CM-H2DCFDA at 5XCmax [3]: 0
ROS measured by CM-H2DCFDA at 10XCmax [3]: 0
ROS measured by CM-H2DCFDA at 20XCmax ([3]; 20XCmax): 0
ROS measured by CM-H2DCFDA at 30XCmax ([3]; 30XCmax): 1.38±0.13
ROS measured by CM-H2DCFDA at 50XCmax ([3]; 50XCmax): 1.80±0.32
ROS measured by CM-H2DCFDA at 100XCmax ([3]; 100XCmax): 3.35±0.28
State 3 respiration driven by succinate at 1XCmax ([6]; 1XCmax): 0
State 4 respiration driven by succinate at 1XCmax ([6]; 1XCmax): 0
State 3 respiration driven by succinate at 2.5XCmax ([6]; 2.5XCmax): 0
State 4 respiration driven by succinate at 2.5XCmax ([6]; 2.5XCmax): 0
State 3 respiration driven by succinate at 5XCmax ([6]; 5XCmax): 0
State 4 respiration driven by succinate at 5XCmax ([6]; 5XCmax): 0
State 3 respiration driven by succinate at 10XCmax ([6]; 10XCmax): 0
State 4 respiration driven by succinate at 10XCmax ([6]; 10XCmax): 0
State 3 respiration driven by succinate at 20XCmax ([6]; 20XCmax): 0
State 4 respiration driven by succinate at 20XCmax ([6]; 20XCmax): 0
State 3 respiration driven by succinate at 30XCmax ([6]; 30XCmax): 0
State 4 respiration driven by succinate at 30XCmax ([6]; 30XCmax): 0
State 3 respiration driven by succinate at 50XCmax ([6]; 50XCmax): 0
State 4 respiration driven by succinate at 50XCmax ([6]; 50XCmax): 0
State 3 respiration driven by succinate at 100XCmax ([6]; 100XCmax): 0
State 4 respiration driven by succinate at 100XCmax ([6]; 100XCmax): 0
Labeling for cardiotoxicity [11]: W&P: QTc Interval Prolongation; Cardiomyopathy
Potential for cardiotoxicity (based on labeling) [11]: 1
RCC II at 1.0XCmax (RCC II; DMSO treated samples set as 1): 0
RCC II at 2.5XCmax (RCC II; DMSO treated samples set as 1): 0
RCC II at 5XCmax (RCC II; DMSO treated samples set as 1): 0
RCC II at 10XCmax (RCC II; DMSO treated samples set as 1): 0
RCC II at 20XCmax (RCC II; 20XCmax, DMSO treated samples set as 1): 0
RCC II at 30XCmax (RCC II; 30XCmax, DMSO treated samples set as 1): 0
RCC II at 50XCmax (RCC II; [13]): 0
RCC II at 100XCmax (RCC II; 100XCmax, DMSO treated samples set as 1): 0
RCC V at 5XCmax (RCC V; DMSO treated samples set as 1): 0
RCC V at 50XCmax (RCC V; [13]): 0
RCC IV at 50XCmax (RCC IV): 0
Cytochrome c release 1XCmax [8]: 0
Cytochrome c release 2.5XCmax [8]: 0
Cytochrome c release 5XCmax [8]: 0
Cytochrome c release 10XCmax [8]: 0
Cytochrome c release 20XCmax ([8]; 20XCmax): 0
Cytochrome c release 30XCmax ([8]; 30XCmax): 0
Cytochrome c release 50XCmax ([8]; 50XCmax): 0
Cytochrome c release 100XCmax ([8]; 100XCmax): 6.58±0.09 percentage of the positive control group
Swelling 1XCmax [9]: 0
Swelling 2.5XCmax [9]: 0
Swelling 5XCmax [9]: 0
Swelling 10XCmax [9]: 0
Swelling 20XCmax ([9]; 20XCmax): 0
Swelling 30XCmax ([9]; 30XCmax): 0
Swelling 50XCmax ([9]; 50XCmax): 0
Swelling 100XCmax ([9]; 100XCmax): 0
